Reference: ChEMBL document CHEMBL1201862, “PubChem BioAssay data set” (2004)
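Briefly, cells in 96-well plates were exposed to five compound concentrations for 48 h, and endpoints were estimated by linear interpolation. GI50 = concentration required for 50% inhibition of growth.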 Active and inactive are the calls of the source. Cut-off read from the data, not from the text of the source: active = GI50 up to about 1.1 µM and inactive = higher.

Tests used:
Assay in all cases: NCI-60 cell line screen, 48 h
SN12C = test system: SN12C
KM-20L2 = test system: KM-20L2
UO-31 = test system: UO-31
IGROV-1 = test system: IGROV-1
NCI-H226 = test system: NCI-H226
COLO 205 = test system: COLO 205
SW-620 = test system: SW-620
SNB-19 = test system: SNB-19
U-251 = test system: U-251
SF-539 = test system: SF-539
ACHN = test system: ACHN
TK-10 = test system: TK-10
K562 = test system: K562
DMS-273 = test system: DMS-273
NCI-H460 = test system: NCI-H460
HL-60 = test system: HL-60
SF-268 = test system: SF-268
LXFL 529 = test system: LXFL 529
M19-MEL = test system: M19-MEL
OVCAR-3 = test system: OVCAR-3
MOLT-4 = test system: MOLT-4
DLD-1 = test system: DLD-1
DMS-114 = test system: DMS-114
EKVX = test system: EKVX
KM12 = test system: KM12
786-0 = test system: 786-0
SK-OV-3 = test system: SK-OV-3
OVCAR-5 = test system: OVCAR-5
SK-MEL-28 = test system: SK-MEL-28
SNB-78 = test system: SNB-78
UACC-257 = test system: UACC-257
SK-MEL-2 = test system: SK-MEL-2
LOX IMVI = test system: LOX IMVI
RPMI-8226 = test system: RPMI-8226
SF-295 = test system: SF-295
CCRF-CEM = test system: CCRF-CEM
Malme-3M = test system: Malme-3M
HOP-62 = test system: HOP-62
HOP-92 = test system: HOP-92
SK-MEL-5 = test system: SK-MEL-5
HCT-15 = test system: HCT-15
HOP-18 = test system: HOP-18
NCI-H522 = test system: NCI-H522
OVCAR-8 = test system: OVCAR-8
UACC-62 = test system: UACC-62
HT-29 = test system: HT-29
XF498 = test system: XF498
HCC 2998 = test system: HCC 2998
M14 = test system: M14
SNB-75 = test system: SNB-75
SR = test system: SR
NCI-H23 = test system: NCI-H23
RXF 393 = test system: RXF 393
OVCAR-4 = test system: OVCAR-4
A498 = test system: A498
A549 = test system: A549
HCT-116 = test system: HCT-116

Measured: GI50

COc1cc2c(cc1OC)C(C#N)N(C(=O)c1ccccc1)C=C2OC(=O)c1ccccc1 (stereo unspecified)
inactive: SN12C 38.5 µM | KM-20L2 52.4 µM | UO-31 20.4 µM | IGROV-1 24.8 µM | NCI-H226 23.2 µM | COLO 205 46.6 µM | SW-620 33 µM | SNB-19 23.6 µM | U-251 24.7 µM | SF-539 19.1 µM | ACHN 20 µM | TK-10 27.1 µM | K562 32.7 µM | DMS-273 21.7 µM | NCI-H460 36.4 µM | HL-60 > 100 µM | SF-268 30.8 µM | LXFL 529 20.6 µM | M19-MEL 33.7 µM | OVCAR-3 21.3 µM | MOLT-4 77.8 µM | DLD-1 29.6 µM | DMS-114 31 µM | EKVX 28.7 µM | KM12 34.4 µM | 786-0 18.1 µM | SK-OV-3 65.8 µM | OVCAR-5 > 100 µM | SK-MEL-28 22.9 µM | SNB-78 30 µM | UACC-257 23.4 µM | SK-MEL-2 22.6 µM | LOX IMVI 39.4 µM | RPMI-8226 39.2 µM | SF-295 22.5 µM | CCRF-CEM 36.6 µM | Malme-3M 25.3 µM | HOP-62 17.6 µM | HOP-92 27 µM | SK-MEL-5 23.9 µM | HOP-18 22 µM | NCI-H522 17.2 µM | OVCAR-8 27.9 µM | UACC-62 20.5 µM | HT-29 48.5 µM | XF498 26.5 µM | HCC 2998 45.1 µM | M14 37.8 µM | SNB-75 17 µM | SR 61.5 µM | NCI-H23 44.9 µM
32.1 µM: HCT-15

O=C1C2c3[nH]c4ccccc4c3C3CCC(c4ccccc4)CC3C2C(=O)N1c1ccccc1 (stereo unspecified)
inactive: SN12C > 100 µM | UO-31 > 100 µM | IGROV-1 > 100 µM | NCI-H226 > 100 µM | COLO 205 > 100 µM | SW-620 > 100 µM | SNB-19 > 100 µM | U-251 > 100 µM | SF-539 97.7 µM | ACHN > 100 µM | TK-10 > 100 µM | K562 55.1 µM | DMS-273 > 100 µM | NCI-H460 > 100 µM | HL-60 24.3 µM | SF-268 > 100 µM | LXFL 529 > 100 µM | M19-MEL > 100 µM | OVCAR-3 > 100 µM | MOLT-4 83.8 µM | DLD-1 > 100 µM | RXF 393 > 100 µM | DMS-114 > 100 µM | OVCAR-4 58.5 µM | EKVX > 100 µM | KM12 > 100 µM | 786-0 > 100 µM | SK-OV-3 > 100 µM | OVCAR-5 > 100 µM | SK-MEL-28 > 100 µM | SNB-78 28.6 µM | LOX IMVI > 100 µM | RPMI-8226 > 100 µM | SF-295 > 100 µM | A498 > 10 µM | CCRF-CEM 44.3 µM | A549 > 100 µM | Malme-3M 36.8 µM | SK-MEL-5 > 100 µM | HOP-18 > 100 µM | OVCAR-8 > 100 µM | UACC-62 > 100 µM | HT-29 > 100 µM | XF498 > 100 µM | HCC 2998 > 100 µM | M14 > 100 µM | SNB-75 27.3 µM | SR 92.5 µM | NCI-H23 > 100 µM
> 100 µM: HCT-15

CC1CC[P+](c2ccccc2)(c2ccccc2)CC1
inactive: SN12C > 100 µM | KM-20L2 89.1 µM | UO-31 > 100 µM | IGROV-1 98.2 µM | NCI-H226 > 100 µM | COLO 205 18.7 µM | SW-620 > 100 µM | SNB-19 92.3 µM | U-251 30.5 µM | SF-539 78.3 µM | ACHN > 100 µM | TK-10 > 100 µM | K562 91.6 µM | DMS-273 68.9 µM | NCI-H460 > 100 µM | HL-60 24.5 µM | LXFL 529 31.7 µM | M19-MEL 27.6 µM | OVCAR-3 46.2 µM | MOLT-4 > 100 µM | DLD-1 > 100 µM | RXF 393 > 100 µM | DMS-114 50.1 µM | EKVX 68.7 µM | KM12 92.5 µM | 786-0 > 100 µM | SK-OV-3 > 100 µM | OVCAR-5 > 100 µM | SK-MEL-28 > 100 µM | SNB-78 > 100 µM | UACC-257 33.6 µM | SK-MEL-2 77.3 µM | LOX IMVI 51.3 µM | RPMI-8226 21.2 µM | SF-295 > 100 µM | A498 > 100 µM | CCRF-CEM 67.6 µM | A549 > 100 µM | Malme-3M > 100 µM | HOP-62 > 100 µM | SK-MEL-5 20.8 µM | HOP-18 > 100 µM | HCT-116 > 100 µM | NCI-H522 40.5 µM | OVCAR-8 > 100 µM | UACC-62 58.5 µM | HT-29 79.3 µM | XF498 25.1 µM | HCC 2998 20.8 µM | M14 88.1 µM | SNB-75 62.4 µM | SR 55.5 µM | NCI-H23 72.6 µM
> 100 µM: HCT-15
